Source: US4892875A, “Substituted heterocyclylalkyl esters of 1,4-dihydropyridine-3,5-dicarboxylic acids” (Takeda Chemical Industries, Ltd., priority 1982, dated 1990)
Like-named read-outs stand apart in the source and are kept apart here.

Legend:
[1] = tested on: spontaneously hypertensive rats; test: Renal blood flow increasing effect (renal circulation improving effect) in anesthetized male spontaneously hypertensive rats; type: in vivo; conditions: Rattus norvegicus, 0.01 mg/kg intravenous, * P < 0.05 vs control
Protocol: Male spontaneously hypertensive rats aged 10 to 11 weeks (3 to 6 animals per group) were anesthetized with pentobarbital and used. After laparotomy, an electromagnetic flowmeter probe (Narco) was fitted to the left renal artery and the renal blood flow was continuously recorded on a polygraph (Sanei Sokki K.K.). […] Each test compound was dissolved in polyethylene glycol 400 to prepare a stock solution. This stock solution was diluted five-fold with physiological saline and the dilution was intravenously administered to rats in a volume of 0.5 ml/kg body weight. The dosage was 0.01 mg/kg for all test compounds. The renal blood flow was measured over a period of 40 minutes following the medication. The values shown are: [formula]

[2] = tested on: spontaneously hypertensive rats; test: Antihypertensive action (systolic blood pressure, caudal artery) in male spontaneously hypertensive rats; type: in vivo, rat; conditions: 10 mg/kg oral; for Change in blood pressure 1 hr. after treatment / Change in blood pressure 5 hrs. after treatment: after minus before medication, * P < 0.05 vs control; for Duration of antihypertensive effect: measured 1, 5, 8 and 24 hours after administration
Protocol: Male spontaneously hypertensive rats aged 10 to 11 weeks were used (in groups of 3 to 6 individuals). […] Each test compound was suspended in a 5% solution of gum arabic and orally administered. The dosage was 10 mg/kg for all compounds. Animals in a control group was given the above solution of gum arabic only.

[3] = 1 min, 1 minute, read-out: Change in renal blood flow, 1 Minute after medication
[4] = 20 min, 20 minutes, read-out: Change in renal blood flow, 20 Minutes after medication
[5] = 40 min, 40 minutes, read-out: Change in renal blood flow, 40 Minutes after medication

`COC(=O)C1=C(C)NC(C)=C(C(=O)OCCN2CCN(C(c3ccccc3)c3ccccc3)CC2)C1c1cccc([N+](=O)[O-])c1.Cl.Cl` (stereo not drawn) [Example 1, 2-(4-benzhydryl-1-piperazinyl)ethyl methyl 2,6-dimethyl-4-(3-nitrophenyl)-1,4-dihydropyridine-3,5-dicarboxylate dihydrochloride] gave a change in vivo at 0.01 mg/kg [1, 3] of 10.4%, a change in vivo at 0.01 mg/kg [1, 4] of 13.4% and a change in vivo at 0.01 mg/kg [1, 5] of 12.8%. The “Change in blood pressure 1 hr. after treatment” value [2] was -89 mmHg, the “Change in blood pressure 5 hrs. after treatment” value [2] was -91 mmHg and the “Duration of antihypertensive effect” value [2] was > 24 h.
`COC(=O)C1=C(C)NC(C)=C(C(=O)OCCN2CCN(C(c3ccccc3)c3ccccc3)CC2)C1c1cccc(Cl)c1Cl` (stereo not drawn) [Example 6, 2-(4-benzhydryl-1-piperazinyl)ethyl methyl 4-(2,3-dichlorophenyl)-2,6-dimethyl-1,4-dihydropyridine-3,5-dicarboxylate] gave a change in vivo at 0.01 mg/kg [1, 3] of 4.5%, a change in vivo at 0.01 mg/kg [1, 4] of 7.5% and a change in vivo at 0.01 mg/kg [1, 5] of 6%. The “Change in blood pressure 1 hr. after treatment” value [2] was -30 mmHg, the “Change in blood pressure 5 hrs. after treatment” value [2] was -33 mmHg and the “Duration of antihypertensive effect” value [2] was 8 to 24 h.
`COC(=O)C1=C(C)NC(C)=C(C(=O)OCCN2CCN(C(c3ccc(F)cc3)c3ccc(F)cc3)CC2)C1c1cccc([N+](=O)[O-])c1` (stereo not drawn) [Example 8, 2-[4-(4,4'-difluorobenzhydryl)-1-piperazinyl]ethyl methyl 2,6-dimethyl-4-(3-nitrophenyl)-1,4-dihydropyridine-3,5-dicarboxylate] gave a change in vivo at 0.01 mg/kg [1, 3] of 5.7%, a change in vivo at 0.01 mg/kg [1, 4] of 6.4% and a change in vivo at 0.01 mg/kg [1, 5] of 9.7%. The “Change in blood pressure 1 hr. after treatment” value [2] was -96 mmHg, the “Change in blood pressure 5 hrs. after treatment” value [2] was -98 mmHg and the “Duration of antihypertensive effect” value [2] was > 24 h.
Compound `COC(=O)C1=C(C)NC(C)=C(C(=O)OCCN2CCN(C(c3ccc(OC)cc3)c3ccc(OC)cc3)CC2)C1c1cccc([N+](=O)[O-])c1` (stereo not drawn) [Example 10, 2-[4-(4,4'-dimethoxybenzhydryl)-1-piperazinyl]ethyl methyl 2,6-dimethyl-4-(3-nitrophenyl)-1,4-dihydropyridine-3,5-dicarboxylate] has a change in vivo at 0.01 mg/kg [1, 3] of 6.9%, a change in vivo at 0.01 mg/kg [1, 4] of 8.3% and a change in vivo at 0.01 mg/kg [1, 5] of 6.8%. For the same compound, the “Change in blood pressure 1 hr. after treatment” value [2] was -88 mmHg, the “Change in blood pressure 5 hrs. after treatment” value [2] was -57 mmHg and the “Duration of antihypertensive effect” value [2] was 8 to 24 h.
For `COC(=O)C1=C(C)NC(C)=C(C(=O)OCCN2CCCN(C(c3ccccc3)c3ccccc3)CC2)C1c1cccc([N+](=O)[O-])c1` (stereo not drawn) [Example 15, 2-(4-benzhydrylhomopiperazin-1-yl)-ethyl methyl 2,6-dimethyl-4-(3-nitrophenyl)-1,4-dihydropyridine-3,5-dicarboxylate], the change in vivo at 0.01 mg/kg [1, 3] was 4.2%, the change in vivo at 0.01 mg/kg [1, 4] was 4.2% and the change in vivo at 0.01 mg/kg [1, 5] was 2.9%. The “Change in blood pressure 1 hr. after treatment” value [2] was -38 mmHg, the “Change in blood pressure 5 hrs. after treatment” value [2] was -18 mmHg and the “Duration of antihypertensive effect” value [2] was 5 to 8 h.
`COC(=O)C1=C(C)NC(C)=C(C(=O)OCCN2CCN(c3cccc(C(F)(F)F)c3)CC2)C1c1cccc([N+](=O)[O-])c1` (stereo not drawn) [Example 18, methyl 2-[4-(3-trifluoromethylphenyl)-1-piperazinyl]ethyl 2,6-dimethyl-4-(3-nitrophenyl)-1,4-dihydropyridine-3,5-dicarboxylate] showed a change in vivo at 0.01 mg/kg [1, 3] of 8.8%, a change in vivo at 0.01 mg/kg [1, 4] of 4.2% and a change in vivo at 0.01 mg/kg [1, 5] of 5%. The “Change in blood pressure 1 hr. after treatment” value [2] was -68 mmHg, the “Change in blood pressure 5 hrs. after treatment” value [2] was -43 mmHg and the “Duration of antihypertensive effect” value [2] was 8 to 24 h.
`COC(=O)C1=C(C)NC(C)=C(C(=O)OCCN2CCN(C(c3ccccc3)c3ccccc3)CC2)C1c1cccc(Cl)c1` (stereo not drawn) [Example 22, 2-(4-benzhydryl-1-piperazinyl)ethyl methyl 4-(3-chlorophenyl)-2,6-dimethyl-1,4-dihydropyridine-3,5-dicarboxylate] showed a change in vivo at 0.01 mg/kg [1, 3] of 7.5%, a change in vivo at 0.01 mg/kg [1, 4] of 7.8% and a change in vivo at 0.01 mg/kg [1, 5] of 9.6%. The “Change in blood pressure 1 hr. after treatment” value [2] was -97 mmHg, the “Change in blood pressure 5 hrs. after treatment” value [2] was -83 mmHg and the “Duration of antihypertensive effect” value [2] was 8 to 24 h.
With `COC(=O)C1=C(C)NC(C)=C(C(=O)OCCN2CCN(C(c3ccccc3)c3ccccc3)CC2)C1c1cccc(C(F)(F)F)c1` (stereo not drawn) [Example 23, 2-(4-benzhydryl-1-piperazinyl)ethyl methyl 2,6-dimethyl-4-(3-trifluoromethylphenyl)-1,4-dihydropyridine-3,5-dicarboxylate] the change in vivo at 0.01 mg/kg [1, 3] was 6.7%, the change in vivo at 0.01 mg/kg [1, 4] was 9.7% and the change in vivo at 0.01 mg/kg [1, 5] was 10.9%. The “Change in blood pressure 1 hr. after treatment” value [2] was -59 mmHg, the “Change in blood pressure 5 hrs. after treatment” value [2] was -66 mmHg and the “Duration of antihypertensive effect” value [2] was 8 to 24 h.
With `CCOC(=O)C1=C(C)NC(C)=C(C(=O)OCCN2CCN(C(c3ccc(C)cc3)c3ccc(C)cc3)CC2)C1c1cccc([N+](=O)[O-])c1` (stereo not drawn) [Example 31, 2-[4-(4,4'-dimethylbenzhydryl)-1-piperazinyl]ethyl ethyl 2,6-dimethyl-4-(3-nitrophenyl)-1,4-dihydropyridine-3,5-dicarboxylate] the change in vivo at 0.01 mg/kg [1, 3] was 3.3%, the change in vivo at 0.01 mg/kg [1, 4] was 4.3% and the change in vivo at 0.01 mg/kg [1, 5] was 1.8%. For the same compound, the “Change in blood pressure 1 hr. after treatment” value [2] was -77 mmHg, the “Change in blood pressure 5 hrs. after treatment” value [2] was -77 mmHg and the “Duration of antihypertensive effect” value [2] was 8 to 24 h.
In the case of `COC(=O)C1=C(C)NC(C)=C(C(=O)OCCN2CCN(c3ccccc3)CC2)C1c1cccc([N+](=O)[O-])c1` (stereo not drawn) [Example 53, methyl 2-(4-phenyl-1-piperazinyl)ethyl 2,6-dimethyl-4-(3-nitrophenyl)-1,4-dihydropyridine-3,5-dicarboxylate], the “Change in blood pressure 1 hr. after treatment” value [2] is reported as -60 mmHg, the “Change in blood pressure 5 hrs. after treatment” value [2] is reported as -34 mmHg and the “Duration of antihypertensive effect” value [2] is reported as “ca. 8 hrs”.
With `COC(=O)C1=C(C)NC(C)=C(C(=O)OCCN2CCN(c3ccc(C)c(Cl)c3)CC2)C1c1cccc([N+](=O)[O-])c1` (stereo not drawn) [Example 57, 2-[4-(3-chloro-4-methylphenyl)-1-piperazinyl]ethyl methyl 2,6-dimethyl-4-(3-nitrophenyl)-1,4-dihydropyridine-3,5-dicarboxylate] the “Change in blood pressure 1 hr. after treatment” value [2] was -85 mmHg, the “Change in blood pressure 5 hrs. after treatment” value [2] was -69 mmHg and the “Duration of antihypertensive effect” value [2] was 8 to 24 h.
`COC(=O)C1=C(C)NC(C)=C(C(=O)OCCN2CCN(c3cccc(Cl)c3Cl)CC2)C1c1cccc([N+](=O)[O-])c1` (stereo not drawn) [Example 58, 2-[4-(2,3-dichlorophenyl)-1-piperazinyl]ethyl methyl 2,6-dimethyl-4-(3-nitrophenyl)-1,4-dihydropyridine-3,5-dicarboxylate] was tested, and the “Change in blood pressure 1 hr. after treatment” value [2] was -27 mmHg, the “Change in blood pressure 5 hrs. after treatment” value [2] was -39 mmHg and the “Duration of antihypertensive effect” value [2] was 8 to 24 h.
For `COC(=O)C1=C(C)NC(C)=C(C(=O)OCCN2CCN(C(c3ccccc3)c3ccccc3)CC2)C1c1cccc2nonc12.Cl.Cl` (stereo not drawn) [Example 60, 2-(4-benzhydryl-1-piperazinyl)ethyl methyl 4-(2,1,3-benzoxadiazol-4-yl)-2,6-dimethyl-1,4-dihydropyridine-3,5-dicarboxylate dihydrochloride], the “Change in blood pressure 1 hr. after treatment” value [2] was -98 mmHg, the “Change in blood pressure 5 hrs. after treatment” value [2] was -90 mmHg and the “Duration of antihypertensive effect” value [2] was 8 to 24 h.
